The values that follow come from US12351580B2, “NLRP3 modulators” (Innate Tumor Immunity, Inc., priority 2017, dated 2025).

A value given as a limit tells only on which side of the number the result lay.

One test deals with T1, TLR8 (Homo sapiens, UniProt Q9NR97).
T1 construct: host or cells: HEK-Blue cells (human HEK) co-expressing TLR8 and an NF-kB/AP1-inducible SEAP reporter
T1 sequence (Q9NR97 27-1041): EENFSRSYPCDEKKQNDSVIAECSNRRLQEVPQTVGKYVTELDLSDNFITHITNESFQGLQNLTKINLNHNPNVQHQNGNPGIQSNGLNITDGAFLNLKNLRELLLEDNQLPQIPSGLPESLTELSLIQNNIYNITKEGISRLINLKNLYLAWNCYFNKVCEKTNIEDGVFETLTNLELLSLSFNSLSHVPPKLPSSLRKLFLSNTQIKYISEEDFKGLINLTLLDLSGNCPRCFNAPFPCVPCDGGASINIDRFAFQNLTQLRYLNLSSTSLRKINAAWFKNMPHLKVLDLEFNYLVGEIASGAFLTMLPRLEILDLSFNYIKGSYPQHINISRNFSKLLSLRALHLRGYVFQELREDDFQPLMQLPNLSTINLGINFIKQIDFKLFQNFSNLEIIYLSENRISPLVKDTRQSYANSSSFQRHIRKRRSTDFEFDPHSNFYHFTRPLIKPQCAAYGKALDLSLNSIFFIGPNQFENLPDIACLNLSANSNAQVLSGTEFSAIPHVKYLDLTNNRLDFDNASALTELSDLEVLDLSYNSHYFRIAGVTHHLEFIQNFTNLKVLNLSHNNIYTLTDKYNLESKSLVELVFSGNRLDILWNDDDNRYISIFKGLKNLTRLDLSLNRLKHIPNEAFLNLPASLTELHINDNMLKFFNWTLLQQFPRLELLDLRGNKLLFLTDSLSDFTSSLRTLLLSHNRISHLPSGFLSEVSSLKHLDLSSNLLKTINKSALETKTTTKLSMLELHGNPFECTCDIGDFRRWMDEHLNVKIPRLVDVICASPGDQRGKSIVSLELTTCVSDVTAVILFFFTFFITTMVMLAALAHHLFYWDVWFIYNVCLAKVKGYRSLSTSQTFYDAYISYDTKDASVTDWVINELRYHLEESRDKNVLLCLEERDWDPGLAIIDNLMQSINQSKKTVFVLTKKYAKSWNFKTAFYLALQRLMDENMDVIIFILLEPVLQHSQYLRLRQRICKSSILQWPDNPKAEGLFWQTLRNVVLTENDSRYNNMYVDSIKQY
Nature of the test: In vitro human TLR8 binding reporter assay (HEK-Blue, NF-kB/AP1-inducible SEAP). The conditions noted are these: activity range symbols. It counts as cell-based. The method in brief:
(§1)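 Reporter cells are plated at 15,000 per well and rested 24 h. Next day, test compounds or DMSO are dispensed, followed by 18 h incubation at 37 °C, 5% CO2.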

A further test addresses T2, TLR7 (Homo sapiens, UniProt Q9NYK1).
T2 construct: host or cells: HEK-Blue cells (human HEK) co-expressing TLR7 and an NF-kB/AP1-inducible SEAP reporter
T2 sequence (Q9NYK1 27-1049): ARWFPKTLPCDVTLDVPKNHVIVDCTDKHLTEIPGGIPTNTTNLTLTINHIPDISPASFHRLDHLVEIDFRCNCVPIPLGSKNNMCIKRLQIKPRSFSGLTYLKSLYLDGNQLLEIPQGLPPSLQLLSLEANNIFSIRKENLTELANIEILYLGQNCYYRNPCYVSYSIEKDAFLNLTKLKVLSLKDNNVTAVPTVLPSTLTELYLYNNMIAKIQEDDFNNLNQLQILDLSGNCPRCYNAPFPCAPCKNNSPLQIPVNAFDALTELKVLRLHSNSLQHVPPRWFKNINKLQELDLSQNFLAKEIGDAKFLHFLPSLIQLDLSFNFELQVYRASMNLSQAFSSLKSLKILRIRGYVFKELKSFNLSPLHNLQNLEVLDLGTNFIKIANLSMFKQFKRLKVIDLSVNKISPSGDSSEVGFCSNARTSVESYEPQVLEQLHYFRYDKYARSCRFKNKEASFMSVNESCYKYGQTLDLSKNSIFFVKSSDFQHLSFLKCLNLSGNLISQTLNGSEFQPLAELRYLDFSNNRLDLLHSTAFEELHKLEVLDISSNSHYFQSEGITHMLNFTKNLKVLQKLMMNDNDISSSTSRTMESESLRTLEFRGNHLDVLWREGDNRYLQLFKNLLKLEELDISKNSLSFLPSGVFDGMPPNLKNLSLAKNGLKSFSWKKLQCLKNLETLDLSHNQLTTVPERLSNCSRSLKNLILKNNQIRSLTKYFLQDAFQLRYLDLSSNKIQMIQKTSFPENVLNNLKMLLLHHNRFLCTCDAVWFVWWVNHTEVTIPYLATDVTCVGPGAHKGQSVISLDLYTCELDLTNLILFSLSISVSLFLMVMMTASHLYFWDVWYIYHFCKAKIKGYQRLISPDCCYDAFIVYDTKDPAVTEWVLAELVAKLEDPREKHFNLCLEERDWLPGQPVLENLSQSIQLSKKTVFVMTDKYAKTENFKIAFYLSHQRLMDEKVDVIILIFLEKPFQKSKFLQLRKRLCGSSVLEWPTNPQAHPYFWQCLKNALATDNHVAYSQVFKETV
Kind of test: In vitro human TLR7 binding reporter assay (HEK-Blue, NF-kB/AP1-inducible SEAP). Format: cell-based. The conditions noted are these: activity range symbols. An outline of the steps: as §1
(A reporter such as luciferase makes a cellular process visible.)

What is called EC50 is the concentration needed to bring the measured effect to its halfway point. As for `CCC(=O)NCc1nc2c(N)nc3cc(-c4cc[nH]n4)ccc3c2[nH]1` [Compound 111], the EC50 on TLR8 and on TLR7 was above 100 µM throughout.

On to `CCN(Cc1nc2c(N)nc3cc(-c4cc[nH]n4)ccc3c2[nH]1)C(=O)c1nccs1` [Compound 114], for which the EC50 at TLR8 and on TLR7 was above 100 µM each time.

Turning to `CN(Cc1nc2c(N)nc3cc(-c4cc[nH]n4)ccc3c2[nH]1)S(C)(=O)=O` [Compound 115], the EC50 on TLR8 and on TLR7 was above 100 µM throughout.

For `CC(c1nc2c(N)nc3cc(-n4cccn4)ccc3c2[nH]1)N1CCCC1=O` (centres unmarked) [Compound 117], the EC50 at TLR8 is above 100 µM; on TLR7, 20 to 100 µM.

Regarding `CCN(Cc1nc2c(N)nc3cc(-c4cc[nH]n4)ccc3c2[nH]1)C(=O)C1CC1` [Compound 118], the EC50 at TLR8 and on TLR7 was above 100 µM throughout.

For `Nc1nc2cc(-c3cccs3)ccc2c2[nH]c(CN3CCCC3=O)nc12` [Compound 309, 1-[(4-amino-7-thiophen-2-yl-1H-imidazo[4,5-c]quinolin-2-yl)methyl]pyrrolidin-2-one], the EC50 on TLR8 and at TLR7 was above 100 µM each time.

As to `N#Cc1ccccc1-c1ccc2c(c1)nc(N)c1nc(CN3CCCC3=O)[nH]c12` [Compound 315, 2-[4-amino-2-[(2-oxopyrrolidin-l-yl)methyl]-1H-imidazo[4,5-c]quinolin-7-yl]benzonitrile], the EC50 at TLR8 and at TLR7 was above 100 µM each time.

With `Nc1nc2cc(Br)ccc2c2[nH]c(CN3CC(c4ccccc4)CC3=O)nc12` (centres unmarked) [Compound 316, 1-[(4-amino-7-bromo-1H-imidazo[4,5-c]quinolin-2-yl)methyl]-4-phenylpyrrolidin-2-one], the EC50 on TLR8 and at TLR7 was above 100 µM in each case.

Take `COc1ncccc1-c1ccc2c(c1)nc(N)c1nc(CN3CCCC3=O)[nH]c12` [Compound 319, 1-[[4-amino-7-(2-methoxypyridin-3-yl)-1H-imidazo[4,5-c]quinolin-2-yl]methyl]pyrrolidin-2-one]: the EC50 on TLR8 and at TLR7 was above 100 µM each time.

Turning to `Nc1nc2cc(-c3cccnc3Cl)ccc2c2[nH]c(CN3CCCC3=O)nc12` [Compound 320, 1-[[4-amino-7-(2-chloropyridin-3-yl)-1H-imidazo[4,5-c]quinolin-2-yl]methyl]pyrrolidin-2-one], the EC50 at TLR8 and at TLR7 was above 100 µM in each case.

With `Nc1nc2cc(-c3cnccc3Cl)ccc2c2[nH]c(CN3CCCC3=O)nc12` [Compound 321, 1-[[4-amino-7-(4-chloropyridin-3-yl)-1H-imidazo[4,5-c]quinolin-2-yl]methyl]pyrrolidin-2-one], the EC50 on TLR8 is above 100 µM; on TLR7, 20 to 100 µM.

In the case of `Nc1nc2cc(-c3ccc(C(F)(F)F)nc3)ccc2c2[nH]c(CN3CCCC3=O)nc12` [Compound 324, 1-[[4-amino-746-(trifluoromethyppyridin-3-yl]-1H-imidazo[4,5-c]quinolin-2-yl]methyl]pyrrolidin-2-one], the EC50 at TLR8 and on TLR7 was above 100 µM each time.

Consider `N#Cc1cncc(-c2ccc3c(c2)nc(N)c2nc(CN4CCCC4=O)[nH]c23)c1` [Compound 326, 5-[4-amino-2-[(2-oxopyrrolidin-l-yl)methyl]-1H-imidazo[4,5-c]quinolin-7-yl]pyridine-3-carbonitrile], for which the concentration giving a half-maximal response (EC50) on TLR8 and at TLR7 was above 100 µM in each case.

Consider `N#Cc1ccc(-c2ccc3c(c2)nc(N)c2nc(CN4CCCC4=O)[nH]c23)cn1` [Compound 327, 5-[4-amino-2-[(2-oxopyrrolidin-l-yl)methyl]-1H-imidazo[4,5-c]quinolin-7-yl]pyridine-2-carbonitrile], for which the EC50 on TLR8 and on TLR7 was above 100 µM throughout.

With `Nc1nc2cc(-c3cncc(Cl)c3)ccc2c2[nH]c(CN3CCCC3=O)nc12` [Compound 328, 1-[[4-amino-7-(5-chloropyridin-3-yl)-1H-imidazo[4,5-c]quinolin-2-yl]methyl]pyrrolidin-2-one], the EC50 on TLR8 and at TLR7 was above 100 µM in each case.

As to `Nc1nc2cc(-c3ccc(F)nc3)ccc2c2[nH]c(CN3CCCC3=O)nc12` [Compound 330, 1-[[4-amino-7-(6-fluoropyridin-3-yl)-1H-imidazo[4,5-c]quinolin-2-yl]methyl]pyrrolidin-2-one], the EC50 on TLR8 and at TLR7 was above 100 µM each time.

With `Nc1nc2cc(-c3cncc(F)c3)ccc2c2[nH]c(CN3CCCC3=O)nc12` [Compound 331, 1-[[4-amino-7-(5-fluoropyridin-3-yl)-1H-imidazo[4,5-c]quinolin-2-yl]methyl]pyrrolidin-2-one], the EC50 at TLR8 and on TLR7 was above 100 µM in each case.

For the compound `Nc1nc2cc(C3CCCCCC3)ccc2c2[nH]c(CN3CCCC3=O)nc12` [Compound 332, 1-[(4-amino-7-cycloheptyl-1H-imidazo[4,5-c]quinolin-2-yl)methyl]pyrrolidin-2-one], the concentration giving a half-maximal response (EC50) at TLR8 and at TLR7 was above 100 µM in each case.

`Nc1nc2cc(-c3cccnc3)ccc2c2[nH]c(CN3CC(c4ccccc4)CC3=O)nc12` (centres unmarked) [Compound 333, 1-[(4-amino-7-pyridin-3-yl-1H-imidazo[4,5-c]quinolin-2-yl)methyl]-4-phenylpyrrolidin-2-one]: the EC50 on TLR8 and on TLR7 was above 100 µM throughout.

With `COC(=O)CCCn1c(CN2CCCC2=O)nc2c(N)nc3ccccc3c21` [Compound 335], the EC50 at TLR8 and on TLR7 was above 100 µM in each case.

On to `CN(C)C(=O)CCCn1c(CN2CCCC2=O)nc2c(N)nc3cc(Cl)ccc3c21` [Compound 337], for which the 50% effective concentration (EC50) at TLR8 and on TLR7 was above 100 µM each time.

Turning to `CN(C)C(=O)CCCn1c(CN2CCCC2=O)nc2c(N)nc3cc(-c4cccnc4)ccc3c21` [Compound 340], the EC50 on TLR8 and at TLR7 was above 100 µM in each case.

In the case of `COC(=O)CCCn1c(CN2CCCC2=O)nc2c(N)nc3cc(Br)ccc3c21` [Compound 341], the EC50 on TLR8 and at TLR7 was above 100 µM throughout.

With `COC(=O)CCCn1c(CN2CCCC2=O)nc2c(N)nc3cc(-c4cccnc4)ccc3c21` [Compound 342], the EC50 on TLR8 and at TLR7 was above 100 µM throughout.

Regarding `Nc1nc2ccccc2c2[nH]c(CN3CCCCC3=O)nc12` [Compound 346], the concentration giving a half-maximal response (EC50) on TLR8 and on TLR7 was above 100 µM each time.

On to `COC(=O)CCCn1c(CN2CCCCC2=O)nc2c(N)nc3ccccc3c21` [Compound 347], for which the EC50 on TLR8 and on TLR7 was above 100 µM throughout.

With `CN(C)Cc1nc2c(N)nc3cc(-c4cc[nH]n4)ccc3c2[nH]1` [Compound 348], the EC50 at TLR8 and on TLR7 was above 100 µM each time.

`CCN(C)Cc1nc2c(N)nc3cc(-c4cc[nH]n4)ccc3c2[nH]1` [Compound 349]: the half-maximal effective concentration (EC50) on TLR8 and on TLR7 was above 100 µM in each case.
